Format in all cases: biochemical
Assay [1] deals with T1, Recombinant human cathepsin K (Homo sapiens, UniProt P43235).
T1 construct: made in house
T1 sequence (P43235 115-329): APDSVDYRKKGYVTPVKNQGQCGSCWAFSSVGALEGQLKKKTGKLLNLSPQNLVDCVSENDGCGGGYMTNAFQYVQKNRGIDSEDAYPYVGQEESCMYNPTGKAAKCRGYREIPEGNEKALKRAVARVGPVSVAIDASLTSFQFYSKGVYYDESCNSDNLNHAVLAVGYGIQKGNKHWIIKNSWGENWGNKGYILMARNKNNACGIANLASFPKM
The experiment in a line: Inhibition of cathepsin K activity (Z-Phe-Arg-AMC fluorescence assay). The settings on record: 25 uM Z-Phe-Arg-AMC, pH 5.5, 1 hour at 37° C. Put shortly:
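Z-Phe-Arg-AMC at 25 uM in 100 mM Na acetate pH 5.5 with 20 mM cysteine, 5 mM EDTA and 2% final DMSO; reaction started by adding enzyme, then 1 hour at 37° C. Fluorescence read at ex 360/em 460 nm; IC50 is the concentration giving 50% inhibition.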

The target in assay [2] is T2, Cathepsin C (Sigma, C8511) (Bos taurus, UniProt Q3ZCJ8).
T2 construct: purchased Sigma C8511
T2 sequence (Q3ZCJ8 25-463): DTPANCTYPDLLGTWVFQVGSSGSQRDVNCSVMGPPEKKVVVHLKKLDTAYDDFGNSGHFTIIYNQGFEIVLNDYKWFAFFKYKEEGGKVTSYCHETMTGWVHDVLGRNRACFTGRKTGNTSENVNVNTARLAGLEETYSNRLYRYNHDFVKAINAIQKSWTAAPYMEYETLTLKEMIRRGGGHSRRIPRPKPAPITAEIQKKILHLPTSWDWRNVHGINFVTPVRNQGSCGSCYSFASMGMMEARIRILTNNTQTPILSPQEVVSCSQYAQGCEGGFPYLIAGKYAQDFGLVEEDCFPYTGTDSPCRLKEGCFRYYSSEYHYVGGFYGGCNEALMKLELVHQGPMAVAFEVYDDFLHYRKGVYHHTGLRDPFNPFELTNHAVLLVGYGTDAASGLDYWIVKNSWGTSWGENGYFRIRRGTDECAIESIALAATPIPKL
The assay can be described thus: Selectivity study: cathepsin C (Gly-Phe-pNA). Conditions: 1 hour at 37° C., read-out: Cathepsins (IC50, nM) C. The method, then: (§1) Test 2: Selectivity Study
(§2) Selectivity study for the compounds of the present invention was performed using cathepsin C (Sigma, C8511), cathepsin G (Calbiochem, 219373), cathepsin H (Calbiochem, 219388), cathepsin L (Calbiochem, 219402), and cathepsin S (Eur. J. Biochem. 236, 558 (1996) as enzyme sources.
Cathepsin C (Sigma, C8511) was dissolved in D.W. buffer (pH 5.5). All inhibitors were prepared in dimethyl sulfoxide (DMSO). In vitro assays for cathepsin C were conducted with Gly-Phe-pNA (Sigma, G-0142) as a substrate. Samples were pre-incubated for 10 minutes at 37° C. Reaction was initiated by the addition of enzyme to samples, which were then incubated for 1 hour at 37° C. The absorbance of p-nitroaniline released was monitored at 405 nm using spectrophotometer.
(§3) The concentrations of the test compounds, which inhibit 50% of cathepsin s C, G, H, L and S activity, are represented as IC50 in Table 2.

The target in assay [3] is T3, Cathepsin G (Calbiochem, 219373) (Homo sapiens, UniProt P08311).
T3 construct: purchased Calbiochem 219373
T3 sequence (P08311 21-244): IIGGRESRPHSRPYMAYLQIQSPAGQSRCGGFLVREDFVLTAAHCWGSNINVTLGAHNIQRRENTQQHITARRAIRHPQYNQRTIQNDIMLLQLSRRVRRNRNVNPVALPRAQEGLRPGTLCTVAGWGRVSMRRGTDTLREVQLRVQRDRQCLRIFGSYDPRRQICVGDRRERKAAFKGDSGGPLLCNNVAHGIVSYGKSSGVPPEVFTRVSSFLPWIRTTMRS
The experiment in a line: Selectivity study: cathepsin G (Suc-Ala-Ala-Pro-Phe-pNA). The settings on record: 1 hour at 25° C., read-out: Cathepsins (IC50, nM) G. As for the experimental part:
as §1, §2
Cathepsin G (Calbiochem, 219373) was dissolved in 50 mM NaOAc and 150 mM NaCl buffer (pH 5.5). All inhibitors were prepared in dimethyl sulfoxide (DMSO). In vitro assays for cathepsin G were conducted with Suc-Ala-Ala-Pro-Phe-pNA (Calbiochem, 219407) as a substrate. Samples were pre-incubated for 10 minutes at 25° C. Reaction was initiated by the addition of enzyme to samples, which were then incubated for 1 hour at 25° C. The absorbance of p-nitroaniline released was monitored at 405 nm using spectrophotometer.
as §3

The target in assay [4] is T4, Cathepsin H (Calbiochem, 219388) (Homo sapiens, UniProt P09668).
T4 construct: purchased Calbiochem 219388
T4 sequence (P09668 98-335): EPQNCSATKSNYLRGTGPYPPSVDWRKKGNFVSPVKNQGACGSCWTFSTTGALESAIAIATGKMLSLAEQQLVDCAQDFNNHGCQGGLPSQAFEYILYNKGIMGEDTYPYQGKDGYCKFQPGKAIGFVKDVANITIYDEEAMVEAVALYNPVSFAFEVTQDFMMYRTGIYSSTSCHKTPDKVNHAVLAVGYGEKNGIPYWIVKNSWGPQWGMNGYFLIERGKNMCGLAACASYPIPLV
The experiment in a line: Selectivity study: cathepsin H (L-Arg-pNA). The settings on record: 1 hour at 40° C., read-out: Cathepsins (IC50, nM) H. The method, then: as §1, §2
Cathepsin H (Calbiochem, 219388) was dissolved in 20 mM NaOAc, 1 mM EDTA-2Na and 100 mM NaCl buffer (pH 4.6). All inhibitors were prepared dimethyl sulfoxide (DMSO). In vitro assays for cathepsin H were conducted with L-Arg-pNA (BACHEM, 1-1160) as a substrate. Samples were pre-incubated for 5 minutes at 40° C. Reaction was initiated by the addition of enzyme to samples, which were then incubated for 1 hour at 40° C. The absorbance of p-nitroaniline released was monitored at 405 nm using spectrophotometer.
as §3

In assay [5] the target is T5, Cathepsin L (Calbiochem, 219402) (Homo sapiens, UniProt P07711).
T5 construct: purchased Calbiochem 219402
T5 sequence (P07711 114-333): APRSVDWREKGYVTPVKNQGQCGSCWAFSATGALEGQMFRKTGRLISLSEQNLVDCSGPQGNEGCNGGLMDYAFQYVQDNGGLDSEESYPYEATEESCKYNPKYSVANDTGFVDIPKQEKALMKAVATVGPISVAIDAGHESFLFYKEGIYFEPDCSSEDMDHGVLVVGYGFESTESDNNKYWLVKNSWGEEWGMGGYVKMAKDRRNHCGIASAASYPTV
The experiment in a line: Selectivity study: cathepsin L (Z-Phe-Arg-AMC). The settings on record: 1 hour at 25° C., read-out: Cathepsins (IC50, nM) L. As for the experimental part: as §1, §2
Cathepsin L (Calbiochem, 219402) was dissolved in 50 mM NaOAc buffer (pH 5.0). All inhibitors were prepared in dimethyl sulfoxide (DMSO). […] Samples were pre-incubated for 5 minutes at 25° C. Reaction was initiated by the addition of enzyme to samples, which were then incubated for 1 hour at 25° C. The fluorescence of AMC (7-amino-4-methylcoumarin) was monitored at 460 nm (excitation wavelength 360 nm), using fluorescence spectrophotometer.
as §3

Assay [6] concerns the target Recombinant human Cathepsin S (Homo sapiens, UniProt P25774). The experiment in a line: Selectivity study: cathepsin S (Z-Val-Val-AMC). Conditions: 30 minutes at 37° C., read-out: Cathepsins (IC50, nM) S. As for the experimental part:
as §1, §2
Recombinant human Cathepsin S (Eur. J. Biochem. 236, 558 (1996) was dissolved in 0.1 M NaOAc 1 mM EDTA-4Na buffer (pH 5.5). All inhibitors were prepared in dimethyl sulfoxide (DMSO). In vitro assays for cathepsin S were conducted with Z-Val-Val-AMC (BACHEM, 1-1160) as a substrate. Samples were pre-incubated for 10 minutes at 4° C. Reaction was initiated by the addition of enzyme to samples, which were then incubated for 30 minutes at 37° C. The florescence of AMC (7-amino-4-methylcoumarin) released was monitored at 465 nm (excitation wavelength 360 nm), using fluorescence spectrophotometer.
as §3

In general, IC50 refers to the concentration at which inhibition is half-maximal.

Structures are written as SMILES. Structures can show the parent of a compound that is named as a salt.

Chain of Recombinant human Cathepsin S (P25774 115-331): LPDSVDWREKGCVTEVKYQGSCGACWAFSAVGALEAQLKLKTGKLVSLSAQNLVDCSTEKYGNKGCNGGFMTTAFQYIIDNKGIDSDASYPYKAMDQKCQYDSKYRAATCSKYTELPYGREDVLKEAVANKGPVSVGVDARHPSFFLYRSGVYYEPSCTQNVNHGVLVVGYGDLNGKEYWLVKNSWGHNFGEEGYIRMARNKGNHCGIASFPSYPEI

With `O=C(NC1(C(=O)NC2CCN(c3ccccc3[N+](=O)[O-])CC2=O)CCCCC1)c1cc2ccccc2o1` (stereo not drawn) [Example 2, 4-[N-[1-[N-(benzofuran-2-ylcarbonyl)amino]cyclohexanecarbonyl]amino]-1-(2-nitrophenyl)piperidin-3-one], the IC50 was 5.97 nM in assay [1]; more than 1000 nM in assay [2]; more than 1000 nM in assay [3]; more than 1000 nM in assay [4]; 2100 nM in assay [5]; 2100 nM in assay [6].
Turning to `O=C(NC1(C(=O)NC2CCN(c3ccccc3N3CCCC3=O)CC2=O)CCCCC1)c1cc2ccccc2o1` (stereo not drawn) [Example 44, 4-[N-[1-[N-(benzofuran-2-ylcarbonyl)amino]cyclohexanecarbonyl]amino]-1-[2-(pyrrolidin-2-one-1-yl)phenyl]piperidin-3-one], the IC50 in assay [1] is 4.96 nM; in assay [2], 394 nM; in assay [3] it was more than 690 nM; in assay [4] it was more than 690 nM; in assay [5], 574 nM; in assay [6] it was 460 nM.
Turning to `O=C(NC1(C(=O)NC2CCN(c3ccccc3N3CC=CC3)CC2=O)CCCCC1)c1cc2ccccc2o1` (stereo not drawn) [Example 57], the IC50 was more than 1000 nM in assay [2]; more than 1000 nM in assay [3]; more than 1000 nM in assay [4]; 285 nM in assay [5]; 731 nM in assay [6].
In the case of `O=C(NC1(C(=O)NC2CCN(c3ccccc3-n3cccc3)CC2=O)CCCCC1)c1cc2ccccc2o1` (stereo not drawn) [Example 60, 4-[N-[1-[N-(benzofuran-2-ylcarbonyl)amino]cyclohexanecarbonyl]amino]-1-[2-(pyrrol-1-yl)phenyl]piperidin-3-one], the IC50 is more than 1000 nM in assay [2]; more than 1000 nM in assay [3]; more than 1000 nM in assay [4]; 103 nM in assay [5]; more than 150 nM in assay [6].
Turning to `CN(C)C(=O)c1ccccc1N1CCC(NC(=O)C2(NC(=O)c3cc4ccccc4o3)CCCCC2)C(=O)C1` (stereo not drawn) [Example 61, 4-[N-[1-[N-(benzofuran-2-ylcarbonyl)amino]cyclohexanecarbonyl]amino]-1-[2-(N,N-dimethylcarbamoyl)phenyl]piperidin-3-one], the IC50 in assay [2] was more than 1000 nM; in assay [3], more than 1000 nM; in assay [4], more than 1000 nM; in assay [5], more than 300 nM; in assay [6], more than 300 nM.
For `CNC(=O)c1ccccc1N1CCC(NC(=O)C2(NC(=O)c3cc4ccccc4o3)CCCCC2)C(=O)C1` (stereo not drawn) [Example 62, 4-[N-[1-[N-(benzofuran-2-ylcarbonyl)amino]cyclohexanecarbonyl]amino]-1-[2-(N-methylcarbamoyl)phenyl]piperidin-3-one], the IC50 in assay [2] is more than 1000 nM; in assay [3] it was more than 1000 nM; in assay [4] it was more than 1000 nM; in assay [5] it was more than 450 nM; in assay [6] it was more than 450 nM.
Take `O=C(NC1(C(=O)NC2CCN(c3ccccc3N3CCCS3(=O)=O)CC2=O)CCCCC1)c1cc2ccccc2o1` (stereo not drawn) [Example 75]: the IC50 in assay [1] was 0.51 nM; in assay [2], more than 1000 nM; in assay [3] it was more than 1000 nM; in assay [4] it was more than 1000 nM; in assay [5], 32.5 nM; in assay [6], more than 150 nM.
Consider `CS(=O)(=O)c1ccccc1N1CCC(NC(=O)C2(NC(=O)c3ccco3)CCCCC2)C(=O)C1` (stereo not drawn) [Example 76, 4-[N-[1-[N-(furan-2-ylcarbonyl)amino]cyclohexanecarbonyl]amino]-1-(2-methanesulfonylphenyl)piperidin-3-one], for which the IC50 in assay [1] is 8.17 nM; in assay [2], more than 2460 nM; in assay [3] it was more than 2460 nM; in assay [4], more than 2460 nM; in assay [5], 971 nM; in assay [6], 204 nM.
Consider `O=C(NC1(C(=O)NC2CCN(c3ccc(F)cc3N3CCC3=O)CC2=O)CCCCC1)c1ccco1` (stereo not drawn) [Example 94, 4-[N-[1-[N-(furan-2-ylcarbonyl)amino]cyclohexanecarbonyl]amino]-1-[4-fluoro-2-(azetidin-2-one-1-yl)phenyl]piperidin-3-one], for which the IC50 is more than 1000 nM in assay [2]; more than 1000 nM in assay [3]; more than 1000 nM in assay [4]; 1450 nM in assay [5]; 197 nM in assay [6].
Regarding `O=C(NC1(C(=O)NC2CCN(c3ccc(F)cc3N3CCCC3=O)CC2=O)CCCCC1)c1ccc(OCCN2CCOCC2)cc1` (stereo not drawn) [Example 170, 4-[N-[1-[N-(4-(2-morpholinethoxy)benzoyl)amino]cyclohexanecarbonyl]amino]-1-[4-fluoro-2-(pyrrolidin-2-one-1-yl)phenyl]piperidin-3-one], the half-inhibitory concentration (IC50) in assay [1] amounted to 1.69 nM.
As to `CN(C)c1ccc(C(=O)NC2(C(=O)NC3CCN(c4ccc(F)cc4S(C)(=O)=O)CC3=O)CCCCC2)cc1` (stereo not drawn) [Example 171, 4-[N-[1-[N-(4-(dimethylamino)benzoyl)amino]cyclohexanecarbonyl]amino]-1-(4-fluoro-2-methanesulfonylphenyl)piperidin-3-one], the half-inhibitory concentration (IC50) in assay [1] is 0.77 nM.
The same measure, in the same setting: the same measure for `CCN(CC)c1ccc(C(=O)NC2(C(=O)NC3CCN(c4ccc(F)cc4S(C)(=O)=O)CC3=O)CCCCC2)cc1` (stereo not drawn) [Example 172, 4-[N-[1-[N-(4-(diethylamino)benzoyl)amino]cyclohexanecarbonyl]amino]-1-(4-fluoro-2-methanesulfonylphenyl)piperidin-3-one]: 0.58 nM; for `CN(C)c1ccc(C(=O)NC2(C(=O)NC3CCN(c4ccc(F)cc4S(C)(=O)=O)CC3=O)CCCCC2)cc1` (stereo not drawn) [Example 173, 4-[N-[1-[N-(4-(dimethylamino)benzoyl)amino]cyclohexanecarbonyl]amino]-1-(4-fluoro-2-methanesulfonylphenyl)piperidin-3-one hydrochloride]: 1.59 nM; for `CCN(CC)c1ccc(C(=O)NC2(C(=O)NC3CCN(c4ccc(F)cc4S(C)(=O)=O)CC3=O)CCCCC2)cc1` (stereo not drawn) [Example 174, 4-[N-[1-[N-(4-(diethylamino)benzoyl)amino]cyclohexanecarbonyl]amino]-1-(4-fluoro-2-methanesulfonylphenyl)piperidin-3-one hydrochloride]: 1 nM.

Values taken from US7342027B2 (Yuhan Corporation, priority 2002, dated 2008).
